The values that follow come from article PMC3372685 (Biochemical Pharmacology, 2012).

Molecules are shown by their SMILES. Like-named read-outs stand apart in the source and are kept apart here. Bounds are passed on as bounds.

Experiment [1] concerns zebrafish. To be noted: previous work; cited from earlier work.
The subject of experiment [2] is zebrafish. The conditions noted are these: cited from earlier work.
Experiment [3] deals with zebrafish heteromeric nAChR subtypes (α3β4, α1β1bεδ, α2β2, α4β2). It counts as cell-based, zebrafish (Danio rerio). To be noted: co-application, 30 µM 4OH-GTS-21 and tropane, 300 µM choline.
Experiment [4] relates to human α7 nAChR. To be noted: read-out: EC50 for human α7; used as probe concentration; cited from earlier work.
Experiment [5] concerns the target T1, zebrafish α7 nAChR (Danio rerio, UniProt Q800C7). Nature of the experiment: Agonist-evoked responses, two-electrode voltage clamp in Xenopus oocytes. To be noted: for Activation of fish α7 nAChR: prototypical α7-selective agonists; for Emax: read-out: Imax; for Agonist type compared to ACh: α7. It counts as cell-based. For orientation: In two-electrode clamp one electrode senses voltage and the other passes current.

Experiment [6] addresses T2, zebrafish α4β2 nAChR (Danio rerio, UniProt E7F4S7+Q0PJT8). The description is as above. The conditions noted are these: for Activation of α4β2 receptors by probe concentration: 30 µM 4OH-GTS-21 and tropane, 300 µM choline; for Emax: read-out: Imax. Type of experiment: cell-based.
The target in experiment [7] is T3, zebrafish α3β4F106Y nAChR (Danio rerio, UniProt A0A0R4ISQ3+A0A8M1QHJ5, F140Y).
Experiment [8] concerns the target T4, zebrafish muscle α1β1bεδ nAChR (Danio rerio, UniProt A2BG85+G1FMP8+Q75XT1+Q98880). Description: cell-based. The conditions noted are these: read-out: Imax.
Experiment [9] has as its target T5, zebrafish α3β4 nAChR (Danio rerio, UniProt A0A0R4ISQ3+A0A8M1QHJ5). Nature of the experiment: Agonist-evoked responses, two-electrode voltage clamp in Xenopus oocytes. It counts as cell-based. The conditions noted are these: for Emax: read-out: Imax; for Agonist type compared to ACh: α3β4.
Experiment [10] deals with T4, zebrafish muscle α1β1bεδ nAChR. To be noted: for EC50: peak current amplitude.
In experiment [11] the target is T6, zebrafish α2β2 nAChR (Danio rerio, UniProt A0ACM8Q9T8+E7F4S7). Nature of the experiment: cell-based.
In experiment [12] the target is T3, zebrafish α3β4F106Y nAChR. Description: cell-based.
Experiment [13] addresses T1, zebrafish α7 nAChR. To be noted: α7, data not shown.
Experiment [14] has as its target T6, zebrafish α2β2 nAChR. The conditions noted are these: α2β2, ACh control after normal washout.
Experiment [15] has as its target T1, zebrafish α7 nAChR. Nature of the experiment: cell-based.
Experiment [16] concerns human and zebrafish α3β4 and α4β2 nAChR. It counts as cell-based. The conditions noted are these: α3β4 and α4β2, repeated application protocol, low concentration of mecamylamine.
Experiment [17] deals with zebrafish. To be noted: given 5 minutes before the task (not if 40 minutes prior); cited from earlier work.
In experiment [18] the target is T4, zebrafish muscle α1β1bεδ nAChR. The conditions noted are these: for IC50: α1β1bεδ, co-application with 30 µM ACh.
Experiment [19] deals with rat α3β4 nAChR. The conditions noted are these: rat α3β4, co-application of 100 µM ACh with 3 µM mecamylamine; cited from earlier work.
Experiment [20] deals with T5, zebrafish α3β4 nAChR. Nature of the experiment: Inhibition of ACh-evoked responses by co-applied mecamylamine in Xenopus oocytes. Type of experiment: cell-based.
Experiment [21] concerns zebrafish. The conditions noted are these: cited from earlier work. This is another data set of the same source.
For experiment [22], the target named is T2, zebrafish α4β2 nAChR. To be noted: α4β2, ACh control after normal washout.
Experiment [23] has as its target T6, zebrafish α2β2 nAChR. Description: cell-based. This is another data set of the same source.
The subject of experiment [24] is zebrafish. To be noted: cited from earlier work. This is another data set of the same source.

For `CO[C@H]1CC=C2CCN3CCC4=C(CC(=O)OC4)[C@]23C1` [DHβE, dihydro-beta-erythroidine], the “Effect on nicotine-induced increase in swimming activity” value in experiment [1] was “blocked”. In addition, the “Effect on anxiolytic effects of nicotine” value in [2] is given as “blocked”.

Usually EC50 stands for the concentration at which the effect is half-maximal. Regarding `C[N+](C)(C)CCO` [choline], the “Inhibition of ACh-evoked responses of heteromeric nAChR subtypes” value (from here on “Inhibition … of heteromeric nAChR subtypes”) in experiment [3] was “relatively ineffective”. In addition, in [4], the EC50 was 300 µM. Moreover, in experiment [5], the “Activation of fish α7 nAChR” value is listed as “activate”. For the same molecule, in experiment [6], the “Activation of α4β2 receptors by probe concentration” value (shortened to “Activation of α4β2 receptors”) was “evoked significant responses”.

In the case of `O=c1cccc2n1C[C@@H]1CNC[C@H]2C1` [cytisine], the “Relative amplitude of responses versus wild-type fish α3β4” value in [7] (100 µM cytisine, relative to 100 µM ACh control responses) is “significantly larger”. The “Effect of the F106Y mutation on efficacy” value in [7] (expressed relative to respective ACh maximums) is recorded as “no significant effect”. For the same molecule, the Emax in experiment [8] came to 13 ± 0.3%; in experiment [5] it was 116 ± 6%; in [9] it was 12 ± 0.2%; in experiment [11] (read-out: Imax), 9 ± 1%; in experiment [6], 26 ± 1%. Further, the EC50 in experiment [5] was 15 ± 3 µM; in experiment [9], 11 ± 1 µM; in experiment [10], 460 ± 20 µM; in [11] it was 4.1 ± 0.3 µM. The figures for the “Agonist type compared to ACh” value in [5] and in experiment [9] were “full agonist” and “relatively weak partial agonist”, respectively.

In the case of `CN1[C@@H]2CCC[C@H]1CC2` [tropane], the “Inhibition … of heteromeric nAChR subtypes” value in experiment [3] is reported as “effective at inhibiting the neuronal heteromeric receptor subtypes”. Besides, in experiment [5], the “Activation of fish α7 nAChR” value was “activate”. The “Activation of α4β2 receptors” value in [6] is reported as “evoked significant responses”.

`CC(=O)OCC[N+](C)(C)C` [ACh, acetylcholine]: the figures for the EC50 in [5], in [9] and in [12] were 39 ± 3 µM, 73 ± 3 µM and 134 ± 5 µM, respectively.

Regarding `COc1cc(O)ccc1/C=C1\CCCN=C1c1cccnc1` [4OH-GTS-21, 3-(4-hydroxy, 2-methoxybenzylidene)anabaseine], in [3], the “Inhibition … of heteromeric nAChR subtypes” value is listed as “inhibited all of the heteromeric receptors”. Also, the “Activation of fish α7 nAChR” value in experiment [5] is reported as “activate”. In addition, in experiment [6], the “Activation of α4β2 receptors” value is recorded as “evoked significant responses”.

As a reminder, the IC50 is the concentration that inhibits the measured activity by half. Consider `CNC1(C)C2CCC(C2)C1(C)C` (stereo not shown) [mecamylamine], for which the Reversibility of inhibition result in experiment [13] is given as “readily reversible”; in [18] (muscle-type receptors), “readily reversible”; in experiment [20] (α3β4, 3 µM mecamylamine), “rapidly reversible”. For the same molecule, the “Mecamylamine concentration giving significant (>25%) residual inhibition” value in [14] is given as ≥ 300 nM; in [22], ≥ 30 nM. Moreover, the IC50 in experiment [15] (Net charge IC50, α7, co-application with 60 µM ACh) came out at 13 ± 3 µM; in experiment [15] (Peak current IC50, α7, co-application with 60 µM ACh) it was 28 ± 11 µM; in experiment [18] (read-out: Net charge IC50), 0.6 ± 0.07 µM; in [18] (read-out: Peak current IC50), 1.8 ± 0.21 µM; in experiment [20] (Net charge IC50, α3β4, co-application with 100 µM ACh), 0.05 ± 0.01 µM; in experiment [20] (Peak current IC50, α3β4, co-application with 100 µM ACh) it was 0.6 ± 0.1 µM. Also, the IC50 stood at 3.5 ± 1.3 µM in [23] (Net charge IC50, α2β2, co-application with 30 µM ACh) and 3 ± 0.7 µM in [23] (Peak current IC50, α2β2, co-application with 30 µM ACh). For the same molecule, the “Inhibition of fish versus human receptor subtypes” value in [16] is reported as “significantly greater (p < 0.01)”. For the same molecule, the “Effect on nicotine-induced improvement in spatial learning task” value in [17] is listed as “blocked this nicotine-induced improvement”. Also, the “Residual inhibition of ACh control responses following washout” value in experiment [19] is 60%. Further, the “Effect on anxiolytic effect of nicotine” value in [2] (200 mg/l mecamylamine) is “blocked”. For the same molecule, in [21], the “Effect on nicotine-induced increase of dihydroxyphenylacetic acid” value is “blocked”.

Take `CCN1C[C@]2(COC(=O)c3ccccc3N3C(=O)C[C@H](C)C3=O)CC[C@H](OC)[C@@]34[C@@H]5C[C@H]6[C@H](OC)[C@@H]5[C@](O)(C[C@@H]6OC)[C@@](O)([C@@H](OC)[C@H]23)[C@@H]14` [MLA, methyllycaconitine]: the “Effect on nicotine-induced increase in swimming activity” value in experiment [1] is recorded as “blocked”. For the same molecule, the “Effect on anxiolytic effects of nicotine” value in experiment [2] is “blocked”.

Consider `CN1CCC[C@H]1c1cccnc1` [nicotine], for which the Emax amounted to 13 ± 3% in [8], 75 ± 4% in experiment [5], 17 ± 2% in experiment [9] and 70 ± 10% in experiment [6]. The EC50 in [5] is 27 ± 6 µM; in experiment [9] it was 13 ± 6 µM; in experiment [10], 140 ± 50 µM. Besides, the “Agonist type compared to ACh” value in experiment [5] was “full agonist”; in experiment [9] it was “partial agonist”; in experiment [10], “partial agonist”; in [6] (α4β2), “partial agonist”. Further, the “Performance in delayed spatial alternation task” value in experiment [24] (high doses) is on record as “impaired”; in [24] (low doses (100 mg/l in the water)), “improved performance”. In experiment [1], the Swimming activity result is listed as “increases swimming activity”. In addition, in [2] (100 mg/l), the “Effect in fish model of anxiety” value is recorded as “anxiolytic”. In experiment [21], the Dihydroxyphenylacetic acid levels result is recorded as “increases dihydroxyphenylacetic acid levels”.
